Structures can show the parent of a compound that is named as a salt.

This assay has as its system HSP27. The assay can be described thus: Inhibition of HSP27 production in heat-shocked human cancer cell lines (Western blotting). It counts as cell-based. As to conditions: Western blot, 20 µM, control showed a single band. Here is the method: The following various human cancer cell lines were cultured under 5% CO2, at 37 °C, except for the heat shock treatment period. The lung cancer cell line H69 (ATCC HTB 119), the gastric cancer cell line KATO III (ATCC HTB 103), the colon cancer cell line COLO 205 (ATCC CCL 222), and the prostate cancer cell line DU145 (ATCC HTB 81) were cultured in an RPMI1640 medium containing 10% inactivated fetal bovine serum (hereinafter referred to as FBS).
The uterine cancer cell line HeLa S3 (ATCC CCL 2.2) was cultured in an MEM medium containing 10% inactivated FBS.
The neuroblastoma cell line SK-N-MC (ATCC HTB 10) was cultured in an MEM medium containing non-essential amino acids (L-alanine = 8.9 mg/l, L-asparagine·H2O = 15.0 mg/l, L-aspartic acid = 13.3 mg/l, L-glutamic acid = 14.7 mg/l, glycine = 7.5 mg/l, L-proline = 11.5 mg/l and L-serine = 10.5 mg/l) and 10% inactivated FBS.
The berberine hydrochloride of the formula (III) (the final concentration = 20 µM: Matsuura Yakugyo) was added to each medium of the above human cancer cell lines 2 days after the inoculation. After the berberine hydrochloride treatment for 24 hours, a heat shock was applied at 45 °C for 15 minutes, and the cells were then cultured at 37 °C overnight. The control tests were carried out by performing the above procedures except that the berberine hydrochloride was not added.
The cells treated in the above (2) were homogenized, and the amounts of HSP27 produced were measured by the Western blotting method.
The cells treated in the above (2) were washed with phosphate buffered physiological saline [composition: KC1 = 0.2 g/l, KH2PO4 = 0.2 g/l, NaCl = 8 g/1, Na2HPO4 (anhydrous) = 1.15 g/l: hereinafter referred to as PBS(-): COSMO BIO CO. Catalogue No. 320-01], and 1 ml of lysis buffer [1.0% NP-40, 0.15 M sodium chloride, 50 mM Tris-HCl (pH 8.0), 5 mM-EDTA, 2 mM-N-ethylmaleimide, 2 mM phenylmethylsulfonyl fluoride, 2 µg/ml leupeptin, and 2 µg/ml pepstatin] was added. The whole was allowed to stand for 20 minutes on ice, and then centrifuged at 4 °C and 12000 rpm for 20 minutes. The resulting supernatant (10 µl) was added to 790 µl of PBS(-), and then 200 µl of a protein assay dye reagent solution (Dye Reagent Concentrate: Bio-Rad Laboratories, Catalogue No. 500-0006) was added. The whole was allowed to stand at room temperature for 5 minutes, and the absorbance at 595 nm was measured to determine the amounts of proteins.
For the SDS-polyacrylamide gel electrophoresis (SDS-PAGE) of the samples, the protein concentration of which were measured, aliquots containing the same amount of protein were loaded onto the gel. The SDS-PAGE was performed according to the Laemmli method (Laemmli, […]). After the electrophoresis, the blotting and then blocking were carried out. More particularly, the gel was brought into contact with a 0.45 µm nitrocellulose membrane (Schleicher & Schuell, Catalogue No. 401196) at room temperature and 100 V, using a protein-transferring apparatus (Trans-Blot Electrophoretic Transfer Cell: Bio-Rad), and blotting was carried out for 3 hours. The blotting buffer used was prepared by adding methyl alcohol to Tris-glycine buffer (pH 8.5) consisting of 0.025 M Tris and 0.192 M glycine (Tris Gly Running and Blotting Buffer; Enprotech, Mass., USA; Catalogue No. SA100034), so that the concentration of methyl alcohol became 20%. After blotting, the nitrocellulose membrane was incubated in a 10% skimmed milk-PBS(-) solution at room temperature for 30 minutes, to block non-specific bindings.
After blocking, the first antibody reaction was carried out on the nitrocellulose membrane, using a screener blotter (Sanplatec), and the anti-human-HSP27 mouse monoclonal antibody (StressGen, Victoria, B.C., Canada, Catalogue No. SPA-800). […]
Background: In western blotting, separated proteins are transferred to a membrane and probed.

`COc1ccc2cc3[n+](cc2c1OC)CCc1cc2c(cc1-3)OCO2` [berberine hydrochloride]: the “band of the molecular weight of approximately 27 kDa” value (shortened to “band”) (colon cancer cell line COLO 205) was “faint in comparison with the control tests”; the “band” value (gastric cancer cell line KATO III) is “faint in comparison with the control tests”; the “band” value (lung cancer cell line H69) is listed as “no band of the molecular weight of approximately 27 kDa was detected”; the “band” value (neuroblastoma cell line SK-N-MC) is on record as “no band of the molecular weight of approximately 27 kDa was detected”; the “band” value (prostate cancer cell line DU145) is “no band of the molecular weight of approximately 27 kDa was detected”; the “band” value (uterine cancer cell line HeLa S3) was “no band of the molecular weight of approximately 27 kDa was detected”.

The values above are taken from EP0813872A1, “Berberine derivates for inhibiting hsp27 production” (Kureha Chemical Industry Co., Ltd., priority 1996, dated 1997).
